ChEMBL document CHEMBL4507281, “Data for DCP probe BI-4394” (2021)

Tests used:
Details in all cases: Compound concentration 10.0 uM
[1] = molecular target: AMP-activated protein kinase (AMPK) alpha-1/beta-1/gamma-1 (Homo sapiens) (UniProt P54619+Q9Y478+Q13131)
[2] = molecular target: Tyrosine-protein kinase BTK (Homo sapiens) (UniProt Q06187)
[3] = molecular target: Cyclin-dependent kinase 2/cyclin A (Homo sapiens) (UniProt P24941+P20248+P78396)
[4] = molecular target: T1, Serine/threonine-protein kinase Chk1 (Homo sapiens) (UniProt O14757)
T1 sequence (whole entry): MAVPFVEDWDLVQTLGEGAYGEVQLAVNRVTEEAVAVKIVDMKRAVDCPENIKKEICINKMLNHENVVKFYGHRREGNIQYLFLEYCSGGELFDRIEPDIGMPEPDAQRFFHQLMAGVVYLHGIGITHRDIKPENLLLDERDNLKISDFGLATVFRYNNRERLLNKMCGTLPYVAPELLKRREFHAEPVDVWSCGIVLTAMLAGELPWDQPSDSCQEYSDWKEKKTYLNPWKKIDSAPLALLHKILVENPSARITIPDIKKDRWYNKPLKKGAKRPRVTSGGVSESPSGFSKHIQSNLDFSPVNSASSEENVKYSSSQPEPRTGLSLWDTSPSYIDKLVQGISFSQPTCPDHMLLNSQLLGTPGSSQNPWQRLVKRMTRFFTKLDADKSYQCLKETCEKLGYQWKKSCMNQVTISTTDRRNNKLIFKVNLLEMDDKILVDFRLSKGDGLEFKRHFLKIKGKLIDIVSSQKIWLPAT

[5] = molecular target: Serine/threonine-protein kinase mTOR (Homo sapiens) (UniProt P42345)
[6] = molecular target: Insulin-like growth factor 1 receptor (Homo sapiens) (UniProt P08069)
Chain of Insulin-like growth factor 1 receptor (Homo sapiens) (P08069 31-736 limits assumed): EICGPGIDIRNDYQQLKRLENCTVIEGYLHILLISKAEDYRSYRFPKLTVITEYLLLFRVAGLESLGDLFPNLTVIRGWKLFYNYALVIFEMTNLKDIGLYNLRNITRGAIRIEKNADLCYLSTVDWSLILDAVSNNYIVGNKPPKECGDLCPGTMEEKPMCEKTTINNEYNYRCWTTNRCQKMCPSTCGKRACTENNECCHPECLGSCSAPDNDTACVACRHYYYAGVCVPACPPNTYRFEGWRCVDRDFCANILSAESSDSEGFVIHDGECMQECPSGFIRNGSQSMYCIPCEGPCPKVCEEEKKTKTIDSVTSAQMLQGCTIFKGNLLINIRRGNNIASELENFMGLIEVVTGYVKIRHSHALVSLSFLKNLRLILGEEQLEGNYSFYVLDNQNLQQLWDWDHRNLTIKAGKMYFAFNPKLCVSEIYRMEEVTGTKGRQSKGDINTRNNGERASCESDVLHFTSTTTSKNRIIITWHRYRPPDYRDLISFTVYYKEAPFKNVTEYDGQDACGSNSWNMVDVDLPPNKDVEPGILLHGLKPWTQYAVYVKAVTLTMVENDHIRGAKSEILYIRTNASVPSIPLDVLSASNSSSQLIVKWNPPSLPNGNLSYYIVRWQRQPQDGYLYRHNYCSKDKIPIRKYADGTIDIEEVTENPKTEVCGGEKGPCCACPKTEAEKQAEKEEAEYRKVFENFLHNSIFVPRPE
Chain of Insulin-like growth factor 1 receptor (Homo sapiens) (P08069 741-1367 limits assumed): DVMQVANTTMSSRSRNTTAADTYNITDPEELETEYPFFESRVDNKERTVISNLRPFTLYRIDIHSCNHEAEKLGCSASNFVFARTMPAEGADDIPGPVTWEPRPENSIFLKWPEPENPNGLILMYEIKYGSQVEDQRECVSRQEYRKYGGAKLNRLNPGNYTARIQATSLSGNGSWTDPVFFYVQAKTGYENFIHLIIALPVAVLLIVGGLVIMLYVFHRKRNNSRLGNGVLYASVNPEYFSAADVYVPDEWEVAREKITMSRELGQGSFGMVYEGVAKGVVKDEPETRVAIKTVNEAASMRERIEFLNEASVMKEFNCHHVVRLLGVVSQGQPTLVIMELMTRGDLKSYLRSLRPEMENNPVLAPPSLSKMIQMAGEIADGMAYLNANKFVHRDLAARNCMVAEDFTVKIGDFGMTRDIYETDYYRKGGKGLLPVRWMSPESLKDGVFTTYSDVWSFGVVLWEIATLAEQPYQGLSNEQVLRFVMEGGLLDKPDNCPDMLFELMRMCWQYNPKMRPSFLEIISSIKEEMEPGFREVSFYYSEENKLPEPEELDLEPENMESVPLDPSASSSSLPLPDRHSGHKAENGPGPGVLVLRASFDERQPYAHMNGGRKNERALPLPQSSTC

[7] = molecular target: T2, Inhibitor of nuclear factor kappa-B kinase subunit beta (Homo sapiens) (UniProt O14920)
T2 sequence (whole entry): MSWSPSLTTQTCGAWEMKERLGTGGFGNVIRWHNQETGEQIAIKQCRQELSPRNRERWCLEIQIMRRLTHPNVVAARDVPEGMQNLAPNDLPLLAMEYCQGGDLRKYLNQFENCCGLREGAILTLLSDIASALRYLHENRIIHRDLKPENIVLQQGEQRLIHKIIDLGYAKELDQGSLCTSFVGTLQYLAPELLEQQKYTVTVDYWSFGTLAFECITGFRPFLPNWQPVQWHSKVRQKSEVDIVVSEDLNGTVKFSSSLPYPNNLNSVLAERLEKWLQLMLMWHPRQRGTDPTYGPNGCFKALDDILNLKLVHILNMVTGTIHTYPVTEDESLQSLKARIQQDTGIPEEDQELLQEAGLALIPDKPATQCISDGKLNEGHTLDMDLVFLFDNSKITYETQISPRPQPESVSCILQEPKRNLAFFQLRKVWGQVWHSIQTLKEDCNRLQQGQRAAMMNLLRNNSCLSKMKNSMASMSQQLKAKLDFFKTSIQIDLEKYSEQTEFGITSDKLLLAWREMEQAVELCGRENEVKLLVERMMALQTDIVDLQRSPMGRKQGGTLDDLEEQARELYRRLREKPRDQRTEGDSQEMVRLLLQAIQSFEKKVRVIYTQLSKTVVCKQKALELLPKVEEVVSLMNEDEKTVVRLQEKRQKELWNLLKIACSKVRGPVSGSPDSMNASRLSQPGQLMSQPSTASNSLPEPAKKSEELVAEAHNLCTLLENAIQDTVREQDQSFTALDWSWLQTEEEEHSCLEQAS

[8] = molecular target: MAP kinase-activated protein kinase 2 (Homo sapiens) (UniProt P49137)
Chain of MAP kinase-activated protein kinase 2 (Homo sapiens) (P49137 whole entry, looked up): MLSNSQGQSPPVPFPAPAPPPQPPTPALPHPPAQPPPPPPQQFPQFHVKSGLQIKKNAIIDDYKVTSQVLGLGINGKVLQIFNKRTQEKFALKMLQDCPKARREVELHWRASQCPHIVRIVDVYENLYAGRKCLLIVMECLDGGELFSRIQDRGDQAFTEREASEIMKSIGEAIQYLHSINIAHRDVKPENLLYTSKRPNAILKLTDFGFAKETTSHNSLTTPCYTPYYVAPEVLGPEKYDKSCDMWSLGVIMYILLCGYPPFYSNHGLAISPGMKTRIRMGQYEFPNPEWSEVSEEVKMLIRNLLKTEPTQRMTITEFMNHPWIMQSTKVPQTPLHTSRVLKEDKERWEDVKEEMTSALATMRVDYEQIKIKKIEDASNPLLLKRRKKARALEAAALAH

[9] = molecular target: T3, Serine/threonine-protein kinase Nek1 (Homo sapiens) (UniProt Q96PY6)
T3 sequence (whole entry): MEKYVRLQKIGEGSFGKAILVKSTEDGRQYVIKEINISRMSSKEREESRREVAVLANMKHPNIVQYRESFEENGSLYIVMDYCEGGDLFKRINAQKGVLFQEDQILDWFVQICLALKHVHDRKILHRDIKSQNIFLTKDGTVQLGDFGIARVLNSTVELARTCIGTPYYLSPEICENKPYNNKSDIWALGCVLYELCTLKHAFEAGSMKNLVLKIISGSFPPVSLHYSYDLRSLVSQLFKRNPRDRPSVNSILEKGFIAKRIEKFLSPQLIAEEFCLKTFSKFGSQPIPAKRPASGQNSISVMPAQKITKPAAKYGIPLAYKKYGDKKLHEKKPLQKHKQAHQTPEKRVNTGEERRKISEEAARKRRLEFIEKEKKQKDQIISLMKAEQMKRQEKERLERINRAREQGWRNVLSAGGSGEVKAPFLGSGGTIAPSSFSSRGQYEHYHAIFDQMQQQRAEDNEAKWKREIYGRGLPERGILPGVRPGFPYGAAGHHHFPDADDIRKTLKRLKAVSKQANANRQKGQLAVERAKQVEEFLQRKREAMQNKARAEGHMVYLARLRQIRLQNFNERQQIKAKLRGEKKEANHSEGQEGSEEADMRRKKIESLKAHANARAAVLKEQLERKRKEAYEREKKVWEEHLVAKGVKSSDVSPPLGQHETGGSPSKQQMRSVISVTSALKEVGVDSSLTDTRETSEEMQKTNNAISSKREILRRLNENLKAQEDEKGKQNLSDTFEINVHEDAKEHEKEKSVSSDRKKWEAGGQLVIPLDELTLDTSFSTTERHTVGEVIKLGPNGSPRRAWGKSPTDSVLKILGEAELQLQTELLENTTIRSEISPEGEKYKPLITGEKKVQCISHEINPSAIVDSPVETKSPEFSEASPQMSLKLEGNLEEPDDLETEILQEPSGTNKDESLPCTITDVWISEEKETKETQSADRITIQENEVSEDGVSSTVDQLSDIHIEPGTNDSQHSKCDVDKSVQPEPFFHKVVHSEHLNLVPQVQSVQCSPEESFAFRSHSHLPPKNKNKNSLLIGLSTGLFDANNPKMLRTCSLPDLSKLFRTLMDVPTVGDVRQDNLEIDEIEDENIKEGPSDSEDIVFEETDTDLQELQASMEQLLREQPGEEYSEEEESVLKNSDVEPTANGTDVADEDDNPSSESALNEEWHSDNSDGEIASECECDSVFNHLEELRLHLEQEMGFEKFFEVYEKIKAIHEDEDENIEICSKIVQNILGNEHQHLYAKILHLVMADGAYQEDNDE

[10] = molecular target: Serine/threonine-protein kinase PAK 4 (Homo sapiens) (UniProt O96013)
Chain of Serine/threonine-protein kinase PAK 4 (Homo sapiens) (O96013 whole entry, looked up): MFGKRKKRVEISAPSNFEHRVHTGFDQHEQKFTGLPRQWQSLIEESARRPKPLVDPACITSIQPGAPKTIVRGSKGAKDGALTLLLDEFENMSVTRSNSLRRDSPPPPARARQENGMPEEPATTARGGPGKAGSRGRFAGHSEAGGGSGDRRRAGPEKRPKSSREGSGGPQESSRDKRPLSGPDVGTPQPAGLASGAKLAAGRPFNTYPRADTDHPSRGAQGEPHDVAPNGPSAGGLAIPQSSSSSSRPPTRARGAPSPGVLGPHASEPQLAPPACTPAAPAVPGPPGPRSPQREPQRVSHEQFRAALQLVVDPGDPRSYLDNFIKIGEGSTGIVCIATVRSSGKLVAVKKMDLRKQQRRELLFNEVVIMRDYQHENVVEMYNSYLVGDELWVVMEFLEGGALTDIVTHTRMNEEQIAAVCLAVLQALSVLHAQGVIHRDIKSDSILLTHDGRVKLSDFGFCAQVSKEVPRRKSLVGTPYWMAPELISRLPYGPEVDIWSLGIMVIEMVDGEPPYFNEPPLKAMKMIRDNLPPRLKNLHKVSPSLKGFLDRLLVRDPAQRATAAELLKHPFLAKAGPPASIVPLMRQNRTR

[11] = molecular target: Rho-associated protein kinase 2 (Homo sapiens) (UniProt O75116)
Chain of Rho-associated protein kinase 2 (Homo sapiens) (O75116 whole entry, looked up): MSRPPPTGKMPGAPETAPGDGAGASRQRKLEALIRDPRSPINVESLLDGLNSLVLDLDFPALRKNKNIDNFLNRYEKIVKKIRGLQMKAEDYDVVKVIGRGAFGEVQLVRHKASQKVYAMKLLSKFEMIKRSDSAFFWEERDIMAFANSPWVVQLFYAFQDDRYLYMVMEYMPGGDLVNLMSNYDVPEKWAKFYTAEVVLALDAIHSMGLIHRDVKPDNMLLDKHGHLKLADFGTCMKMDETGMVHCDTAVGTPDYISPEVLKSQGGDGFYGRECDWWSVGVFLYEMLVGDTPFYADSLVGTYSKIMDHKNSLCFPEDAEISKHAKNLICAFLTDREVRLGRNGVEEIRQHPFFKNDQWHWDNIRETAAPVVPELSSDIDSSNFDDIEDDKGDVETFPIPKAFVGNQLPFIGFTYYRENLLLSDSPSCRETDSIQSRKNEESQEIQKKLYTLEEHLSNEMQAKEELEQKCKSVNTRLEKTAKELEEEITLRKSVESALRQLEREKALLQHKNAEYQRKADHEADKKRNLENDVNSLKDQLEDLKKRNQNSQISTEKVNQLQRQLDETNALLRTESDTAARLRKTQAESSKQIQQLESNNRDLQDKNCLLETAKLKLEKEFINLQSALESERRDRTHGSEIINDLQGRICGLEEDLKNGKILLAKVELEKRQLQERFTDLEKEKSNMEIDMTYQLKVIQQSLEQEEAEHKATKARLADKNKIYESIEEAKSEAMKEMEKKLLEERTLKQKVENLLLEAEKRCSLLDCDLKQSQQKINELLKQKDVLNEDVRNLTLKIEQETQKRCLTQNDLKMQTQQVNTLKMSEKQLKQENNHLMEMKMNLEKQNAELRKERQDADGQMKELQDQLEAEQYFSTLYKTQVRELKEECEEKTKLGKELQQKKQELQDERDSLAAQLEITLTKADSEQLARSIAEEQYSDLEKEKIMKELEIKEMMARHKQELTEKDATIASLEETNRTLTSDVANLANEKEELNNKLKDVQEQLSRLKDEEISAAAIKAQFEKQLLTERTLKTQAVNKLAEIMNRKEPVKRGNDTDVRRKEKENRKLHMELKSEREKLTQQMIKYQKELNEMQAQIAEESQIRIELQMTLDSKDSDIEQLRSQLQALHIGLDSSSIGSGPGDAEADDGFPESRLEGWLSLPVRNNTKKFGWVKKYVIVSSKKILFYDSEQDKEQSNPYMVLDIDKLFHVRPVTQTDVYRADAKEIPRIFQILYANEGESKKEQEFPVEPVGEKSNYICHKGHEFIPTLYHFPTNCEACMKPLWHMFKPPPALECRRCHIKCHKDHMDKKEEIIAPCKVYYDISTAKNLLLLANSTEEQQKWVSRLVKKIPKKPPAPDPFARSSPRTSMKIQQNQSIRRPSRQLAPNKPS

Chain of AMP-activated protein kinase (AMPK) alpha-1/beta-1/gamma-1 (Homo sapiens) (P54619 whole entry): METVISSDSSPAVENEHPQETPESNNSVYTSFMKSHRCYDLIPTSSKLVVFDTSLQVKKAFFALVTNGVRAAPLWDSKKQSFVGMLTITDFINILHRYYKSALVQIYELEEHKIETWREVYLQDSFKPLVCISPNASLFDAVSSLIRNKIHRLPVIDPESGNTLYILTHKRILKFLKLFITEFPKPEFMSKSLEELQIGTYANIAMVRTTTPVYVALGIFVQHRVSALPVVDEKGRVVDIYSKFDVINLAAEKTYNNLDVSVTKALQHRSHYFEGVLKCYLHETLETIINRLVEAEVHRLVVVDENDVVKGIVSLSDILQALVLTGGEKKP
Chain of AMP-activated protein kinase (AMPK) alpha-1/beta-1/gamma-1 (Homo sapiens) (Q13131 whole entry partner): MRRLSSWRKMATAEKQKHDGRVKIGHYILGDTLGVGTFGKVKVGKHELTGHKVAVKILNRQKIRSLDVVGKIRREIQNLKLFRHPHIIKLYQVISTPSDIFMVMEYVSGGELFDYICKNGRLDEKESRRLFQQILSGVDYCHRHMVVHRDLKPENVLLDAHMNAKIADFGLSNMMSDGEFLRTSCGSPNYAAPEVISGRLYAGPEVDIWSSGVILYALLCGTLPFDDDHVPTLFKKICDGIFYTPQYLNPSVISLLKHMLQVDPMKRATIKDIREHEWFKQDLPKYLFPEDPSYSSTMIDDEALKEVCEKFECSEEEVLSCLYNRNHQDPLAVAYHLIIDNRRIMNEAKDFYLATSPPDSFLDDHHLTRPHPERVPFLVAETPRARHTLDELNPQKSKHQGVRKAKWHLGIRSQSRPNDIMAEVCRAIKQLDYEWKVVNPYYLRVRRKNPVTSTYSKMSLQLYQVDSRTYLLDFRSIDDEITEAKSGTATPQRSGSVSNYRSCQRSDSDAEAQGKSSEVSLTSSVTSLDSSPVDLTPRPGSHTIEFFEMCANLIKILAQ
Chain of AMP-activated protein kinase (AMPK) alpha-1/beta-1/gamma-1 (Homo sapiens) (Q9Y478 2-270 partner limits assumed): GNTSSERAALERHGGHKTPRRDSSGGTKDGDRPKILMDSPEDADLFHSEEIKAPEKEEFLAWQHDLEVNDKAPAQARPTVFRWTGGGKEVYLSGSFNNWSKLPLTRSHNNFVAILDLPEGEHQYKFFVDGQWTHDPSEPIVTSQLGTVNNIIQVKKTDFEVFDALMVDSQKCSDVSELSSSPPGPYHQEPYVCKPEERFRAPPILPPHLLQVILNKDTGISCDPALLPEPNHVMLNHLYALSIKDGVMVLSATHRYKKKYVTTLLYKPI

`CCOC(=O)c1cc2cc(-c3cc(C(=O)NCc4ccc(C(=O)O)cc4)nn3C)ccc2[nH]1` [BI 4394] was tested. Which residual activity [1] did it give?
Its residual activity is 8%.

And the residual activity [2]?
Its residual activity is 68%.

And the residual activity [3]?
The residual activity was 93%.

And the residual activity [4]?
The residual activity was 94%.

And the residual activity [5]?
The residual activity was 78%.

And the residual activity [6]?
Its residual activity is 88%.

What about the residual activity [7] of the same compound?
Its residual activity is 48%.

What about the residual activity [8] of the same compound?
The residual activity was 1%.

And the residual activity [9]?
The residual activity was 49%.

And the residual activity [10]?
The residual activity was 75%.

And the residual activity [11]?
Its residual activity is 56%.
